pEC50, pIC50: −log10 of the molar value. Activity calls are given as the source filed them. The calls are words filed in the database; no cut-off is given here.
Columns and labels:
MCF7 [1] = assay: cells; conditions: Homo sapiens, MCF7, 120 h
MDA-MB-231 [2] = assay: cells; conditions: Homo sapiens, MDA-MB-231, 120 h
[3] = target: T1, Proto-oncogene tyrosine-protein kinase Src (Homo sapiens, UniProt P12931); assay: biochemical; assay type: cell-based
[4] = target: Tyrosine-protein kinase ABL1 (Homo sapiens, UniProt P00519)
Sequence of Tyrosine-protein kinase ABL1 (P00519 whole entry): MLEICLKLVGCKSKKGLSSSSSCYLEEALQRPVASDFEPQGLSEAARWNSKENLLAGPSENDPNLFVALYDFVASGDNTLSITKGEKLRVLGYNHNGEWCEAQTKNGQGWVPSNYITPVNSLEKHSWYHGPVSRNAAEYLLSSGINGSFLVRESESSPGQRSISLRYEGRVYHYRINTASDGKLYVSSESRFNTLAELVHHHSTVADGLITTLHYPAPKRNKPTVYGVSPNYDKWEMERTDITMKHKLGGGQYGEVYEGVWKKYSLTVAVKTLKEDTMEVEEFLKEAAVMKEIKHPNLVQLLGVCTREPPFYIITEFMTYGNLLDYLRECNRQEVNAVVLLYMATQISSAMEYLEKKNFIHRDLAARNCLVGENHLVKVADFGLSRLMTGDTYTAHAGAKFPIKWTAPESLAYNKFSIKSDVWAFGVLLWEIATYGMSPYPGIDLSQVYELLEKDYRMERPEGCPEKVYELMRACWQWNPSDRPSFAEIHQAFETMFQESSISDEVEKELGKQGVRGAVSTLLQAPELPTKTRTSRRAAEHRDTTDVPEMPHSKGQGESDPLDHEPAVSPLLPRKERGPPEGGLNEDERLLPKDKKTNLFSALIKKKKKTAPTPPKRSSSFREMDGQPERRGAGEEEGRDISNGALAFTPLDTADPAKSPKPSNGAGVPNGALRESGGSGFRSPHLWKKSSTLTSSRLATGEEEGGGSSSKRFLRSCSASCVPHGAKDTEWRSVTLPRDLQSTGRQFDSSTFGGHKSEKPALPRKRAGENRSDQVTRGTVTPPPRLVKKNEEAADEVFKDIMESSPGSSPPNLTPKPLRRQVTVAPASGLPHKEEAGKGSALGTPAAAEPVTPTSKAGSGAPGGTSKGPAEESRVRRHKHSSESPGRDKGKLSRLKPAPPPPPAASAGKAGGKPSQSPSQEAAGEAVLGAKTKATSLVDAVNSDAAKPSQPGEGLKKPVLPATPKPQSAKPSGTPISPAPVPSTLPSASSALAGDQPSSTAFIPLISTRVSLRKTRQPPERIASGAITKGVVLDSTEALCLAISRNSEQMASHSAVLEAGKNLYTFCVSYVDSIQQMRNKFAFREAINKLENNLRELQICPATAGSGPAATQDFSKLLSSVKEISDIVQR

MCF7 [5] = assay: Antiproliferative activity against human MCF7 cells assessed as reduction in cell confluence level at […] after 5 days by microscopy based time-lapse imaging assay; assay type: functional
[6] = target: Mast/stem cell growth factor receptor Kit (Homo sapiens, UniProt P10721); assay: Inhibition of human KIT using poly[Glu,Tyr]4:1 as substrate in presence of [gamma-33P]ATP
Sequence of Mast/stem cell growth factor receptor Kit (P10721 whole entry): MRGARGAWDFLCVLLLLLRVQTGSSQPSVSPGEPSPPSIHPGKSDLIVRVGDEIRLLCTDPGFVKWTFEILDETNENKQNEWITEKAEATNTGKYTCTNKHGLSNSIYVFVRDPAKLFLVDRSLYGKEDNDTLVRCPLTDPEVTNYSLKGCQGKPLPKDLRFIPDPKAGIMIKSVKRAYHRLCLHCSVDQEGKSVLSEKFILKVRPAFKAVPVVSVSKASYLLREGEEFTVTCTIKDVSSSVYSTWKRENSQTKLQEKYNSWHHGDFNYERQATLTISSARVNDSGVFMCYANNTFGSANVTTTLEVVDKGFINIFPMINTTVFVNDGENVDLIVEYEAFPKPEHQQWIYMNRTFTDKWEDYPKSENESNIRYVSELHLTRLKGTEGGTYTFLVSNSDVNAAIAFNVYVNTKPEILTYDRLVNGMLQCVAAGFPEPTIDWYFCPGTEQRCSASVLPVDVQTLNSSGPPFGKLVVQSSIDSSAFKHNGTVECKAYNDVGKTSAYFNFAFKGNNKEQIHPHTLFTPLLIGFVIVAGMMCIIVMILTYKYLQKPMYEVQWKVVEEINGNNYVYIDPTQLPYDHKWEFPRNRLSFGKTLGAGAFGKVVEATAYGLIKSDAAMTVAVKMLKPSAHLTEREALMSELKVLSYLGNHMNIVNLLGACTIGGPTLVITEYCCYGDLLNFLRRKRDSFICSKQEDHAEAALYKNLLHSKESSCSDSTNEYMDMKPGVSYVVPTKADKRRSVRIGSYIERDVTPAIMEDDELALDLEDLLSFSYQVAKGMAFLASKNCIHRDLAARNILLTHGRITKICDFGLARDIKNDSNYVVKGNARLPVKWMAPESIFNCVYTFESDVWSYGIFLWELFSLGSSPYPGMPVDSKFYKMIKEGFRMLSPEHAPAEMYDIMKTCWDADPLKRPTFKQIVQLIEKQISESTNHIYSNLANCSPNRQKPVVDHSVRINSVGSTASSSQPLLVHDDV

[7] = target: Serine/threonine-protein kinase mTOR (Homo sapiens, UniProt P42345); assay: Inhibition of human mTOR using poly[Glu,Tyr]4:1 as substrate in presence of [gamma-33P]ATP
[8] = target: Platelet-derived growth factor receptor alpha (Homo sapiens, UniProt P16234); assay: Inhibition of human PDGFRalpha using poly[Glu,Tyr]4:1 as substrate in presence of [gamma-33P]ATP
Sequence of Platelet-derived growth factor receptor alpha (P16234 whole entry): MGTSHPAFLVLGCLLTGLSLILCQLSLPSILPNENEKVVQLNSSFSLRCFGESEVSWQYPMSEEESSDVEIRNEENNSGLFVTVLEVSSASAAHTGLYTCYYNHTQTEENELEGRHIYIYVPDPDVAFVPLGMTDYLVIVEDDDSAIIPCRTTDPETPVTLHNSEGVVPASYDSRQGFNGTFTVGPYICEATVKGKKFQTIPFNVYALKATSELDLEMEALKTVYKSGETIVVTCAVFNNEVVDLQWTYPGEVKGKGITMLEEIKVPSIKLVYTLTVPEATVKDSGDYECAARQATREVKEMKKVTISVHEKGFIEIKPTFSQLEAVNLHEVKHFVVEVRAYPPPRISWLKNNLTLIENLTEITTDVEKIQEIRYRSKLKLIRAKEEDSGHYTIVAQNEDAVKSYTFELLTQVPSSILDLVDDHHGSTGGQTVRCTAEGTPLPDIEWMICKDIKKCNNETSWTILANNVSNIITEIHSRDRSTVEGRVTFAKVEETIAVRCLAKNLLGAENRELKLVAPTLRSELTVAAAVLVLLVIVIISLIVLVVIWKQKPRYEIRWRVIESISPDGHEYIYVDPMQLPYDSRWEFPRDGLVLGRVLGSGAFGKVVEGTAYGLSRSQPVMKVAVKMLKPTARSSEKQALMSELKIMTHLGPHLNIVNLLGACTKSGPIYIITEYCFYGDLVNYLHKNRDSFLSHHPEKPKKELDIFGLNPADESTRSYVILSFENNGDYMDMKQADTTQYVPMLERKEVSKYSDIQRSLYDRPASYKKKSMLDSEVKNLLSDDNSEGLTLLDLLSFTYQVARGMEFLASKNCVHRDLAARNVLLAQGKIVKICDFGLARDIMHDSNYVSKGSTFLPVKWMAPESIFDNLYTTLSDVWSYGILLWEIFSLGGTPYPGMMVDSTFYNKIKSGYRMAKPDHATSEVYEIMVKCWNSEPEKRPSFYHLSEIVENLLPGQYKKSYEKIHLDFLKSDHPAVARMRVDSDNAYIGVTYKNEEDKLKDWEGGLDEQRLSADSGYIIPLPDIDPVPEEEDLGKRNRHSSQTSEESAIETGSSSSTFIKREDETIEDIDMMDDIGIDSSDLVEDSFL

[9] = target: Proto-oncogene tyrosine-protein kinase receptor Ret (Homo sapiens, UniProt P07949); assay: Inhibition of human RET using poly[Glu,Tyr]4:1 as substrate in presence of [gamma-33P]ATP
Sequence of Proto-oncogene tyrosine-protein kinase receptor Ret (P07949 whole entry): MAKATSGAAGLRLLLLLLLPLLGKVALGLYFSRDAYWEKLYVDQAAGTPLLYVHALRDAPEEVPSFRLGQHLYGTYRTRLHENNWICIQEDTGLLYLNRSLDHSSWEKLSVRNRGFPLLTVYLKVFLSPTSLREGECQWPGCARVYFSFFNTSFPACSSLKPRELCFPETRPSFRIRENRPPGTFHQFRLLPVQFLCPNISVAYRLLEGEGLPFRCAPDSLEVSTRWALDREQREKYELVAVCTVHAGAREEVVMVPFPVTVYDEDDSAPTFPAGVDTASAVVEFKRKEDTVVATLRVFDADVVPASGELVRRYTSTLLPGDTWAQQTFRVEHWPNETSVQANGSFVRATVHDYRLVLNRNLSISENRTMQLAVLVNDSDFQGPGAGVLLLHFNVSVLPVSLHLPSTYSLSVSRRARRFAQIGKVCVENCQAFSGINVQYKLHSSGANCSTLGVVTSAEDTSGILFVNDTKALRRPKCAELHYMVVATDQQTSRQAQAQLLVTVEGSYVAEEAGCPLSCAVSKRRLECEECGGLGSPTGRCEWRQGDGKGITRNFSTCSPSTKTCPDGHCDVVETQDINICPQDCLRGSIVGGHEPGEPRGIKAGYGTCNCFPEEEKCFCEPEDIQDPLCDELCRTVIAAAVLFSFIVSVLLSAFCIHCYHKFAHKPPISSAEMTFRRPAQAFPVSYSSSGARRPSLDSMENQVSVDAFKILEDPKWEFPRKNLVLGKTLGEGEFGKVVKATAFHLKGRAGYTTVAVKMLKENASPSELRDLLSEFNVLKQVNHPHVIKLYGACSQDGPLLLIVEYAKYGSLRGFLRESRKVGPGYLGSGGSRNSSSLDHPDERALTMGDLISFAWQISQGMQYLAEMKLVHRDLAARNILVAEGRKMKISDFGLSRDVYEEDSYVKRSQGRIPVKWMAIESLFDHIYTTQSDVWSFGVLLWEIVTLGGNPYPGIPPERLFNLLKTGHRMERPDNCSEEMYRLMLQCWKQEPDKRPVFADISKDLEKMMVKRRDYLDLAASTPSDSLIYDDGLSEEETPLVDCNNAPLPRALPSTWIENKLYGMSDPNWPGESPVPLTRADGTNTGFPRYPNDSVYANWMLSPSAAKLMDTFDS

[10] = target: Tyrosine-protein kinase Yes (Homo sapiens, UniProt P07947); assay: Inhibition of human YES using poly[Glu,Tyr]4:1 as substrate in presence of [gamma-33P] ATP
MCF7 [11] = assay: Antiproliferative activity against human MCF7 cells assessed as cell death at […] after 48 to 120 hrs by microscopy based time-lapse imaging assay; assay type: functional
MDA-MB-231 [12] = assay: Increase in total SRC in human MDA-MB-231 cells preincubated for 1.5 hrs followed by serum stimulation for 1 hr by Western blot analysis; assay type: cell-based; conditions: mda-mb-231, 1 h
Danio rerio [13] = organism: Danio rerio; assay: Cardiotoxicity in wild-type zebrafish embryos at >10 uM treated for 4 hrs measured after 48 hrs by fluorescent microscopy; assay type: organism-based; conditions: in vivo
Danio rerio [14] = organism: Danio rerio; assay: Toxicity in wild-type zebrafish embryos assessed as mortality at >10 uM treated for 4 hrs measured after 48 hrs by fluorescent microscopy; assay type: organism-based; conditions: in vivo
[15] = Solubility of the compound in water at pH 2.6; assay type: physicochemical
[16] = Solubility of the compound in water at pH 7; assay type: physicochemical
[17] = Half life in nude mouse at 10 mg/kg, […] via oral gavage; assay type: ADME, organism-based; conditions: in vivo
Danio rerio [18] = organism: Danio rerio; assay: Cardiotoxicity in wild-type zebrafish embryos assessed as heart enlargement at 1 to 10 uM treated for 4 hrs measured after 48 hrs by fluorescent microscopy; assay type: toxicity, organism-based; conditions: in vivo
[19] = target: Focal adhesion kinase 1 (Mus musculus) (UniProt P34152); assay: Inhibition of FAK phosphorylation at tyrosine 861 in SRC, YES and FYN deficient mouse SYF cells at 3 to 100 nM preincubated for 1.5 hrs followed by serum stimulation for 1 hr by Western blot analysis; assay type: cell-based
[20] = Antiproliferative activity against SRC, YES and FYN deficient mouse SYF cells at 3 to 100 nM; assay type: cell-based; conditions: 0.1 µM
MDA-MB-231 [21] = assay: Antimigratory activity in human MDA-MB-231 cells at >10 nM after 24 hrs by microscopy based scratch-wound cell migration assay; assay type: functional
MDA-MB-231 [22] = assay: Cytotoxicity against human MDA-MB-231 cells assessed as reduction in cell viability at >10 nM after 24 hrs; assay type: cell-based; conditions: mda-mb-231, 24 h
MCF7 [23] = assay: Induction of apoptosis in human MCF7 cells assessed as caspase 3/7 activity at >/= 100 nM after 5 days using phase contrast and fluorescent microscopy; assay type: functional, cell-based
Danio rerio [24] = organism: Danio rerio; assay: Effect on the development of the wild-type zebrafish embryos at 500 uM treated for 4 hrs measured at 48 hrs by fluorescent microscopy; assay type: ADME, organism-based; conditions: in vivo
Plasma [25] = assay: Metabolic stability in human plasma at 1 uM after 20 to 120 mins by LC-MS/MS analysis; assay type: ADME, cell-free
Plasma [26] = assay: Metabolic stability in mouse plasma at 1 uM after 20 to 120 mins by LC-MS/MS analysis; assay type: ADME, cell-free
Plasma [27] = assay: Metabolic stability in rat plasma at 1 uM after 20 to 120 mins by LC-MS/MS analysis; assay type: ADME, cell-free
Cytochrome P450 1A2 = target: T2, Cytochrome P450 1A2 (Homo sapiens, UniProt P05177); assay: Inhibition of CYP1A2 (unknown origin) at 10 uM; assay type: ADME
T2 sequence (P05177 whole entry): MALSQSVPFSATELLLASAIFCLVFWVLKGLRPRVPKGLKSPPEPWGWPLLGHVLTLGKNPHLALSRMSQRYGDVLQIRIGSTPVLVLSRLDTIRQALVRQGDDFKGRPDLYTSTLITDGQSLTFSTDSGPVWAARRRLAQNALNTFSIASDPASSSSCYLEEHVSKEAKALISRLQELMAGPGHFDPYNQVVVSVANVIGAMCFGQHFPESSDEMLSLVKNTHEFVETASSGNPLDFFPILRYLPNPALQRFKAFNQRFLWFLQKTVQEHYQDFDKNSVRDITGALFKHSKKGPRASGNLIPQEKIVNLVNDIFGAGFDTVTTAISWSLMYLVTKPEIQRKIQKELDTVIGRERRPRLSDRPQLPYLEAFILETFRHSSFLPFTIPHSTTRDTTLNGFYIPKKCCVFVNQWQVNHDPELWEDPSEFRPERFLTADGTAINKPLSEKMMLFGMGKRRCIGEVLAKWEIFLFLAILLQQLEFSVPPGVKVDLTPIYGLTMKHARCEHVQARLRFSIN

Cytochrome P450 3A4 = Cytochrome P450 3A4 (Homo sapiens, UniProt P08684); assay: Inhibition of CYP3A4 (unknown origin) at 10 uM; assay type: ADME
Cytochrome P450 2C9 = Cytochrome P450 2C9 (Homo sapiens, UniProt P11712); assay: Inhibition of CYP2C9 (unknown origin) at 10 uM; assay type: ADME
Cytochrome P450 2D6 = Cytochrome P450 2D6 (Homo sapiens, UniProt P10635); assay: Inhibition of CYP2D6 (unknown origin) at 10 uM; assay type: ADME
Cytochrome P450 2C19 = Cytochrome P450 2C19 (Homo sapiens, UniProt P33261); assay: Inhibition of CYP2C19 (unknown origin) at 10 uM; assay type: ADME
Mus musculus = assay: In vivo inhibition of SRC phosphorylation at tyrosine 416 in human HCT116 cells xenografted in mouse at 50 mg/kg via oral gavage administered daily for 3 days measured 3 hrs post last dose by immunohistochemistry; assay type: functional, organism-based; conditions: HCT-116
[28] = target: T1, Proto-oncogene tyrosine-protein kinase Src
MCF7 [29] = assay: Antiproliferative activity against human MCF7 cells assessed as blockage of cell division at […] after 48 to 120 hrs by microscopy based time-lapse imaging assay; assay type: functional
[30] = target: Tyrosine-protein kinase Fyn (Homo sapiens, UniProt P06241); assay: Inhibition of human FYN using poly[Glu,Tyr]4:1 as substrate in presence of [gamma-33P]ATP

T1 sequence (P12931 2-536 limits assumed): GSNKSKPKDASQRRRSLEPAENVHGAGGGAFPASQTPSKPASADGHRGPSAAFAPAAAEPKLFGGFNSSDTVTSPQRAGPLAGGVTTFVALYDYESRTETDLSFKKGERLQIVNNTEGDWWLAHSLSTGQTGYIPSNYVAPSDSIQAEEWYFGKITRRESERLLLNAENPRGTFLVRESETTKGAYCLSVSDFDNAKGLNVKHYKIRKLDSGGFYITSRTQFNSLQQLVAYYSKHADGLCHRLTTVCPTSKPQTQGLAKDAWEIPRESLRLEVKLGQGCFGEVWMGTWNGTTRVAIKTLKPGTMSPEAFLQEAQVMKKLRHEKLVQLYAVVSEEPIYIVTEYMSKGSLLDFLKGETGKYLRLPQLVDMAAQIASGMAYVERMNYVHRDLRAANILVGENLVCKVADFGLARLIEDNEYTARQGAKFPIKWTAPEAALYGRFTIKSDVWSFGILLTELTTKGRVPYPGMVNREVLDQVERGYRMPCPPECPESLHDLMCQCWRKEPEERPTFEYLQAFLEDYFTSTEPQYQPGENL

## CCOC(Cn1nc(-c2ccc(OC)c(OC)c2)c2c(N)ncnc21)OCC
MCF7 [1]
  pEC50: 5.21

## COc1cc(-c2nn(CCN3CCC(OC)CC3)c3ncnc(N)c23)ccc1NC(=O)OC(C)(C)C
MDA-MB-231 [2]
  pEC50: 5.71

## CCOC(Cn1nc(-c2ccc3ncccc3c2)c2c(N)ncnc21)OCC
MCF7 [1]
  pEC50: 3.58

## COc1cc(-c2nn(CCN3CCC(N(C)C)CC3)c3ncnc(N)c23)ccc1CC(=O)N1CCCC1
MDA-MB-231 [2]
  pEC50: < 4.00

## CCOC(Cn1nc(-c2cccc(O)c2)c2c(N)ncnc21)OCC
MCF7 [1]
  pEC50: 5.12

## CN(C)C1CCN(CCn2nc(-c3ccc(NC(=O)OC(C)(C)C)cc3)c3c(N)ncnc32)CC1
[3]
  pIC50: 7.15
[4]
  pIC50: < 5.00

## CN(C)CC1CCN(CCn2nc(-c3cccc(O)c3)c3c(N)ncnc32)CC1
MCF7 [1]
  pEC50: 4.52

## Cc1ccc(-c2nn(CCN3CCN(CCN(C)C)CC3)c3ncnc(N)c23)cc1
MCF7 [5]
  Activity: Active

## Cc1ccc(-c2nn(CCN3CCC(CCN(C)C)CC3)c3ncnc(N)c23)cc1
MCF7 [5]
  Activity: Active
[6]
  pIC50: < 5.00
[7]
  pIC50: < 5.00
[8]
  pIC50: < 5.00
[9]
  pIC50: < 5.00

## COc1cc(-c2nn(CCN3CCCC(N(C)C)C3)c3ncnc(N)c23)ccc1NC(=O)OC(C)(C)C (stereo not drawn)
MDA-MB-231 [2]
  pEC50: 5.70

## CN(C)C1CCN(CCn2nc(-c3ccc4c(ccn4C(=O)OC(C)(C)C)c3)c3c(N)ncnc32)CC1
MDA-MB-231 [2]
  pEC50: 5.38

## CCOC(Cn1nc(C#Cc2ccccc2)c2c(N)ncnc21)OCC
MCF7 [1]
  pEC50: 5.30

## COc1cc(-c2nn(CCN3CCC(N(C)C)CC3)c3ncnc(N)c23)ccc1NCc1ccccn1
MDA-MB-231 [2]
  pEC50: 4.40

## CN(C)C1CCN(CCn2nc(-c3ccc(NC(=O)OC(C)(C)C)c(O)c3)c3c(N)ncnc32)CC1
MDA-MB-231 [2]
  pEC50: 5.01

## Cc1ccc(-c2nn(C(C)(C)C)c3ncnc(N)c23)cc1
[10]
  pIC50: 7.44
[8]
  pIC50: 6.18

## Cc1ccc(-c2nn(CCN3CCN(C)CC3)c3ncnc(N)c23)cc1
MCF7 [5]
  Activity: Active

## CN(C)C1CCN(CCn2nc(-c3cccc(NC(=O)OC(C)(C)C)c3)c3c(N)ncnc32)CC1
MDA-MB-231 [2]
  pEC50: 4.57

## CN(C)CC1CCN(CCn2nc(-c3ccoc3)c3c(N)ncnc32)CC1
MCF7 [1]
  pEC50: 4.24

## CCOC(Cn1nc(-c2ccc(C)cc2)c2c(N)ncnc21)OCC
MCF7 [1]
  pEC50: 4.51

## COc1cc(-c2nn(CCN3CCC(N(C)C)CC3)c3ncnc(N)c23)ccc1NC(=O)CCc1ccccc1
MDA-MB-231 [2]
  pEC50: 4.91

## Cc1ccc(-c2nn(CCN3CCC(N(C)C)CC3)c3ncnc(N)c23)cc1
MCF7 [5]
  Activity: Active
[6]
  pIC50: < 5.00
[7]
  pIC50: < 5.00
[8]
  pIC50: < 5.00
[9]
  pIC50: 5.18

## CN(C)CC1CCN(CCn2nc(-c3cnc4[nH]ccc4c3)c3c(N)ncnc32)CC1
MCF7 [11]
  Activity: Active
[6]
  pIC50: < 5.00
[7]
  pIC50: 5.07
[8]
  pIC50: < 5.00

## Cc1nc(Nc2ncc(C(=O)Nc3c(C)cccc3Cl)s2)cc(N2CCN(CCO)CC2)n1.O [DASATINIB]
MDA-MB-231 [12]
  Activity: Dose-dependent effect
Danio rerio [13]
  Activity: Toxic
Danio rerio [14]
  Activity: Toxic
[15]
  solubility: 18 mg/mL
[16]
  solubility: < 0.001 mg/mL
[17]
  half-life: 54 min
Danio rerio [18]
  Activity: Toxic

## CN(C)CC1CCN(CCn2nc(-c3ccc4ncccc4c3)c3c(N)ncnc32)CC1
MCF7 [1]
  pEC50: 4.03

## CN(C)CC1CCN(CCn2nc(C#Cc3ccccc3)c3c(N)ncnc32)CC1
MCF7 [1]
  pEC50: 4.87

## COc1cc(-c2nn(CCN3CCC(N(C)C)CC3)c3ncnc(N)c23)ccc1NC(=O)OC(C)(C)C
[19]
  inhibition: inactive
[20]
  Activity: Non-toxic
MDA-MB-231 [21]
  Activity: Active
MDA-MB-231 [22]
  Activity: Toxic
MCF7 [23]
  Activity: Active
Danio rerio [24]
  Activity: Non-toxic
Plasma [25]
  Stability: Stable
Plasma [26]
  Stability: Stable
Plasma [27]
  Stability: Stable
Cytochrome P450 1A2
  inhibition (INH): Active
Cytochrome P450 3A4
  inhibition (INH): Not Active
Cytochrome P450 2C9
  inhibition (INH): Not Active
Cytochrome P450 2D6
  inhibition (INH): Not Active
Cytochrome P450 2C19
  inhibition (INH): Not Active
Mus musculus
  inhibition: Active
[6]
  pIC50: < 5.00
[28]
  TDI: inactive

## COc1cc(-c2nn(CCN3CCC(CN(C)C)CC3)c3ncnc(N)c23)ccc1NC(=O)OC(C)(C)C
[20]
  Activity: Non-toxic

## CCOC(Cn1nc(-c2cnc3[nH]ccc3c2)c2c(N)ncnc21)OCC
[3]
  pIC50: 5.61
[10]
  pIC50: 6.25
MCF7 [29]
  Activity: Active
[4]
  pIC50: 5.92
[30]
  pIC50: 5.91
[6]
  pIC50: < 5.00
[7]
  pIC50: 6.48
[8]
  pIC50: < 5.00
[9]
  pIC50: 6.22

## COc1ccc(-c2nn(CCN3CCC(N(C)C)CC3)c3ncnc(N)c23)cc1NC(=O)OC(C)(C)C
MDA-MB-231 [2]
  pEC50: 4.54

## CN(C)C1CCN(CCn2nc(-c3ccc(NC(=O)OC(C)(C)C)nc3)c3c(N)ncnc32)CC1
MDA-MB-231 [2]
  pEC50: 4.75

## COc1cc(-c2ccn(CCN3CCC(N(C)C)CC3)n2)ccc1NC(=O)OC(C)(C)C
MDA-MB-231 [2]
  pEC50: 4.49

## COc1ccc(-c2nn(CCN3CCC(CN(C)C)CC3)c3ncnc(N)c23)cc1OC
MCF7 [1]
  pEC50: 4.74

## COc1cc(-c2nn(CCN3CCC(N(C)C)CC3)c3ncnc(N)c23)ccc1N
MDA-MB-231 [2]
  pEC50: 5.17

## COc1cc(-c2nn(CCN3CCC(N(C)C)CC3)c3ncnc(N)c23)ccc1NCc1cccnc1
MDA-MB-231 [2]
  pEC50: 5.38

## CCOC(Cn1nc(-c2ccoc2)c2c(N)ncnc21)OCC
MCF7 [1]
  pEC50: 4.37

## Cc1ccc(-c2nn(CCN3CCC(CN(C)C)CC3)c3ncnc(N)c23)cc1
MCF7 [5]
  Activity: Active
[6]
  pIC50: < 5.00
[7]
  pIC50: < 5.00
[8]
  pIC50: < 5.00
[9]
  pIC50: < 5.00
